Test: mn = molality of the nth substance listed, in mol/kg
Conditions: 101 kPa, Liquid; for mass density: Vibrating tube method; for viscosity: Capillary tube (Ostwald / Ubbelohde) method

CNC(=O)NC [1,3-dimethylurea] + O
Conditions | mass density [kg/m3] | viscosity [mPa·s]
298.15 K, m1 = 23.15 | 1068 | –
303.15 K, m1 = 0.0033 | 995.7 | 0.8242
303.15 K, m1 = 0.0331 | 995.9 | 0.8316
303.15 K, m1 = 0.0995 | 996.4 | 0.8464
303.15 K, m1 = 0.1669 | 997 | 0.8592
303.15 K, m1 = 0.2354 | 997.5 | 0.8702
303.15 K, m1 = 0.3039 | 998.1 | 0.8753
303.15 K, m1 = 0.3387 | 998.3 | 0.887
303.15 K, m1 = 0.4997 | 999.6 | –
303.15 K, m1 = 0.7491 | 1001.6 | 0.9652
303.15 K, m1 = 1.001 | 1003.6 | –
303.15 K, m1 = 1.08 | 1004.2 | –
303.15 K, m1 = 1.5 | 1007.4 | –
303.15 K, m1 = 1.923 | 1010.5 | 1.216
303.15 K, m1 = 2.885 | 1017.1 | 1.44
303.15 K, m1 = 4.005 | 1023.8 | 1.729
303.15 K, m1 = 5.304 | 1030.6 | 2.055
303.15 K, m1 = 6.862 | 1037.4 | 2.49
303.15 K, m1 = 8.726 | 1043.8 | 3.002
303.15 K, m1 = 11.02 | 1049.8 | 3.603
303.15 K, m1 = 15.65 | 1057.8 | 4.927
303.15 K, m1 = 23.15 | 1064 | 7.122
308.15 K, m1 = 0.4997 | 997.9 | –
308.15 K, m1 = 0.7491 | 999.8 | 0.8666
308.15 K, m1 = 1.001 | 1001.7 | –
308.15 K, m1 = 1.08 | 1002.3 | –
308.15 K, m1 = 1.5 | 1005.4 | –
308.15 K, m1 = 1.923 | 1008.4 | 1.079
308.15 K, m1 = 2.885 | 1014.8 | 1.271
308.15 K, m1 = 4.005 | 1021.3 | 1.511
308.15 K, m1 = 5.304 | 1027.8 | 1.778
308.15 K, m1 = 6.862 | 1034.3 | 2.135
308.15 K, m1 = 8.726 | 1040.5 | 2.545
308.15 K, m1 = 11.02 | 1046.3 | 3.056
308.15 K, m1 = 15.65 | 1054 | 4.116
308.15 K, m1 = 23.15 | 1060.1 | 5.865
313.15 K, m1 = 0.4997 | 996 | –
313.15 K, m1 = 0.7491 | 997.9 | 0.7797
313.15 K, m1 = 1.001 | 999.7 | –
313.15 K, m1 = 1.08 | 1000.3 | –
313.15 K, m1 = 1.5 | 1003.3 | –
313.15 K, m1 = 1.923 | 1006.1 | 0.9649
313.15 K, m1 = 2.885 | 1012.3 | 1.127
313.15 K, m1 = 4.005 | 1018.6 | 1.336
313.15 K, m1 = 5.304 | 1024.9 | 1.56
313.15 K, m1 = 6.862 | 1031.1 | 1.859
313.15 K, m1 = 8.726 | 1037.1 | 2.195
313.15 K, m1 = 11.02 | 1042.8 | 2.626
313.15 K, m1 = 15.65 | 1050.2 | 3.513
313.15 K, m1 = 23.15 | 1056.1 | 4.918
318.15 K, m1 = 5.304 | 1021.8 | 1.38
318.15 K, m1 = 6.862 | 1027.8 | 1.632
318.15 K, m1 = 8.726 | 1033.6 | 1.906
318.15 K, m1 = 11.02 | 1039.1 | 2.268
318.15 K, m1 = 15.65 | 1046.3 | 3.024
318.15 K, m1 = 23.15 | 1052.1 | 4.196
323.15 K, m1 = 5.304 | 1018.6 | 1.222
323.15 K, m1 = 6.862 | 1024.5 | 1.44
323.15 K, m1 = 8.726 | 1030.1 | 1.681
323.15 K, m1 = 11.02 | 1035.4 | 1.983
323.15 K, m1 = 15.65 | 1042.4 | 2.646
323.15 K, m1 = 23.15 | 1048 | 3.658
328.15 K, m1 = 5.304 | 1015.9 | 1.095
328.15 K, m1 = 6.862 | 1021 | 1.293
328.15 K, m1 = 8.726 | 1026.5 | 1.492
328.15 K, m1 = 11.02 | 1031.6 | 1.76
328.15 K, m1 = 15.65 | 1038.4 | 2.333
328.15 K, m1 = 23.15 | 1043.9 | 3.212
333.15 K, m1 = 5.304 | 1012.3 | 1.024
333.15 K, m1 = 6.862 | 1017.5 | 1.164
333.15 K, m1 = 8.726 | 1022.7 | 1.343
333.15 K, m1 = 11.02 | 1027.8 | 1.564
333.15 K, m1 = 15.65 | 1034.4 | 2.061
333.15 K, m1 = 23.15 | 1039.8 | 2.818

Source: the NIST ThermoML archive (doi:10.1021/je900444h)
